According to US4479943A, “3-Demethoxyistamycin B, the 2"-N-formimidoyl derivative thereof and pharmaceutical composition containing same” (Zaidan Hojin Biseibutsu Kagaku Kenkyu Kai, priority 1982, dated 1984):
≈ marks a conversion by molar mass, not a printed value.

Columns and labels:
[1] = test system: Staphylococcus epidermidis 109; assay: Antibacterial MIC, standard serial dilution; assay type: cell-based; details: nutrient agar, 37° C., 17 hours, as free base
[2] = test system: Salmonella typhi T-63; assay: Antibacterial MIC, standard serial dilution; assay type: cell-based; details: nutrient agar, 37° C., 17 hours, as free base
[3] = test system: Pseudomonas aeruginosa H9; assay: Antibacterial MIC, standard serial dilution; assay type: cell-based; details: nutrient agar, 37° C., 17 hours, as free base
[4] = test system: Pseudomonas aeruginosa PST1; assay: Antibacterial MIC, standard serial dilution; assay type: cell-based; details: nutrient agar, 37° C., 17 hours, as free base
[5] = test system: Escherichia coli W677; assay: Antibacterial MIC, standard serial dilution; assay type: cell-based; details: nutrient agar, 37° C., 17 hours, as free base
[6] = test system: Escherichia coli NIHJ; assay: Antibacterial MIC, standard serial dilution; assay type: cell-based; details: nutrient agar, 37° C., 17 hours, as free base
[7] = test system: Corynebacterium bovis 1810; assay: Antibacterial MIC, standard serial dilution; assay type: cell-based; details: nutrient agar, 37° C., 17 hours, as free base
[8] = test system: Bacillus subtilis PCI 219; assay: Antibacterial MIC, standard serial dilution; assay type: cell-based; details: nutrient agar, 37° C., 17 hours, as free base
[9] = test system: Pseudomonas aeruginosa B-13; assay: Antibacterial MIC, standard serial dilution; assay type: cell-based; details: nutrient agar, 37° C., 17 hours, as free base
[10] = test system: Escherichia coli K-12 C600 R135; assay: Antibacterial MIC, standard serial dilution; assay type: cell-based; details: nutrient agar, 37° C., 17 hours, as free base
[11] = test system: Pseudomonas aeruginosa TI-13; assay: Antibacterial MIC, standard serial dilution; assay type: cell-based; details: nutrient agar, 37° C., 17 hours, as free base
[12] = test system: Escherichia coli K-12 LA290 R64; assay: Antibacterial MIC, standard serial dilution; assay type: cell-based; details: nutrient agar, 37° C., 17 hours, as free base
[13] = test system: Shigella dysenteriae JS11910; assay: Antibacterial MIC, standard serial dilution; assay type: cell-based; details: nutrient agar, 37° C., 17 hours, as free base
[14] = test system: Bacillus cereus ATCC 10702; assay: Antibacterial MIC, standard serial dilution; assay type: cell-based; details: nutrient agar, 37° C., 17 hours, as free base
[15] = test system: gram-negative and gram-positive bacteria; assay: Antibacterial activity overall (Table 1 spectrum); assay type: cell-based; details: in words
[16] = test system: Pseudomonas aeruginosa GN315; assay: Antibacterial MIC, standard serial dilution; assay type: cell-based; details: nutrient agar, 37° C., 17 hours, as free base
[17] = test system: Pseudomonas aeruginosa A3; assay: Antibacterial MIC, standard serial dilution; assay type: cell-based; details: nutrient agar, 37° C., 17 hours, as free base
[18] = test system: Serratia sp. SOU; assay: Antibacterial MIC, standard serial dilution; assay type: cell-based; details: nutrient agar, 37° C., 17 hours, as free base
[19] = test system: Escherichia coli JR225; assay: Antibacterial MIC, standard serial dilution; assay type: cell-based; details: nutrient agar, 37° C., 17 hours, as free base
[20] = test system: Escherichia coli K-12 R388; assay: Antibacterial MIC, standard serial dilution; assay type: cell-based; details: nutrient agar, 37° C., 17 hours, as free base
[21] = test system: Pseudomonas aeruginosa 21-75; assay: Antibacterial MIC, standard serial dilution; assay type: cell-based; details: nutrient agar, 37° C., 17 hours, as free base
[22] = test system: Providencia sp. 2991; assay: Antibacterial MIC, standard serial dilution; assay type: cell-based; details: nutrient agar, 37° C., 17 hours, as free base
[23] = test system: Pseudomonas aeruginosa No. 12; assay: Antibacterial MIC, standard serial dilution; assay type: cell-based; details: nutrient agar, 37° C., 17 hours, as free base
[24] = test system: Klebsiella pneumoniae PCI602; assay: Antibacterial MIC, standard serial dilution; assay type: cell-based; details: nutrient agar, 37° C., 17 hours, as free base
[25] = test system: Pseudomonas aeruginosa 99; assay: Antibacterial MIC, standard serial dilution; assay type: cell-based; details: nutrient agar, 37° C., 17 hours, as free base
[26] = test system: Proteus vulgaris 0X19; assay: Antibacterial MIC, standard serial dilution; assay type: cell-based; details: nutrient agar, 37° C., 17 hours, as free base
[27] = test system: Staphylococcus aureus FDA 209P; assay: Antibacterial MIC, standard serial dilution; assay type: cell-based; details: nutrient agar, 37° C., 17 hours, as free base
[28] = test system: Escherichia coli K-12 ML1410 R81; assay: Antibacterial MIC, standard serial dilution; assay type: cell-based; details: nutrient agar, 37° C., 17 hours, as free base
[29] = test system: Escherichia coli K-12 J5R11-2; assay: Antibacterial MIC, standard serial dilution; assay type: cell-based; details: nutrient agar, 37° C., 17 hours, as free base
[30] = test system: Staphylococcus aureus Smith; assay: Antibacterial MIC, standard serial dilution; assay type: cell-based; details: nutrient agar, 37° C., 17 hours, as free base
[31] = test system: Pseudomonas aeruginosa K-Ps 102; assay: Antibacterial MIC, standard serial dilution; assay type: cell-based; details: nutrient agar, 37° C., 17 hours, as free base
[32] = test system: Proteus rettgeri GN311; assay: Antibacterial MIC, standard serial dilution; assay type: cell-based; details: nutrient agar, 37° C., 17 hours, as free base
[33] = test system: Pseudomonas maltophilia GN 907; assay: Antibacterial MIC, standard serial dilution; assay type: cell-based; details: nutrient agar, 37° C., 17 hours, as free base
[34] = test system: Serratia sp. 4; assay: Antibacterial MIC, standard serial dilution; assay type: cell-based; details: nutrient agar, 37° C., 17 hours, as free base
[35] = test system: Staphylococcus aureus Ap01; assay: Antibacterial MIC, standard serial dilution; assay type: cell-based; details: nutrient agar, 37° C., 17 hours, as free base
[36] = test system: Proteus rettgeri GN466; assay: Antibacterial MIC, standard serial dilution; assay type: cell-based; details: nutrient agar, 37° C., 17 hours, as free base
[37] = test system: Sarcina lutea PCI 1001; assay: Antibacterial MIC, standard serial dilution; assay type: cell-based; details: nutrient agar, 37° C., 17 hours, as free base
[38] = test system: Escherichia coli JR66/W677; assay: Antibacterial MIC, standard serial dilution; assay type: cell-based; details: nutrient agar, 37° C., 17 hours, as free base
[39] = test system: Mycobacterium smegmatis ATCC 607; assay: Antibacterial MIC, standard serial dilution; assay type: cell-based; details: nutrient agar, 37° C., 17 hours, as free base
[40] = test system: Pseudomonas aeruginosa ROS 134/PU21; assay: Antibacterial MIC, standard serial dilution; assay type: cell-based; details: nutrient agar, 37° C., 17 hours, as free base
[41] = test system: Escherichia coli K-12; assay: Antibacterial MIC, standard serial dilution; assay type: cell-based; details: nutrient agar, 37° C., 17 hours, as free base
[42] = test system: mice; assay: Acute toxicity, intravenous administration in mice; assay type: in vivo
[43] = test system: Escherichia coli K-12 ML1629; assay: Antibacterial MIC, standard serial dilution; assay type: cell-based; details: nutrient agar, 37° C., 17 hours, as free base
[44] = test system: Escherichia coli K-12 LA290 R56; assay: Antibacterial MIC, standard serial dilution; assay type: cell-based; details: nutrient agar, 37° C., 17 hours, as free base
[45] = test system: Salmonella enteritidis 1891; assay: Antibacterial MIC, standard serial dilution; assay type: cell-based; details: nutrient agar, 37° C., 17 hours, as free base
[46] = test system: Klebsiella pneumoniae 22#3038; assay: Antibacterial MIC, standard serial dilution; assay type: cell-based; details: nutrient agar, 37° C., 17 hours, as free base
[47] = test system: Pseudomonas aeruginosa H11; assay: Antibacterial MIC, standard serial dilution; assay type: cell-based; details: nutrient agar, 37° C., 17 hours, as free base
[48] = test system: Bacillus anthracis; assay type: cell-based; details: nutrient agar, 37° C., 17 hours, as free base
[49] = test system: Micrococcus flavus FDA 16; assay: Antibacterial MIC, standard serial dilution; assay type: cell-based; details: nutrient agar, 37° C., 17 hours, as free base
[50] = test system: Serratia marcescens; assay: Antibacterial MIC, standard serial dilution; assay type: cell-based; details: nutrient agar, 37° C., 17 hours, as free base
[51] = test system: Bacillus subtilis NRRL B-558; assay: Antibacterial MIC, standard serial dilution; assay type: cell-based; details: nutrient agar, 37° C., 17 hours, as free base
[52] = test system: Escherichia coli K-12 ML1410; assay: Antibacterial MIC, standard serial dilution; assay type: cell-based; details: nutrient agar, 37° C., 17 hours, as free base
[53] = test system: Providencia sp. Pv16; assay: Antibacterial MIC, standard serial dilution; assay type: cell-based; details: nutrient agar, 37° C., 17 hours, as free base
[54] = test system: Pseudomonas aeruginosa; details: in words; earlier filings; cited from earlier work

CNCC1CCC(N)C(OC2C(N)CCC(N(C)C(=O)CN)C2O)O1 (stereo not shown) [DB, 3-demethoxyistamycin B]
MIC [1]: < 0.20 µg/mL
MIC [2]: < 0.20 µg/mL
MIC [3]: 12.5 µg/mL (≈ 34.8 µM)
MIC [4]: 12.5 µg/mL (≈ 34.8 µM)
MIC [5]: 0.39 µg/mL (≈ 1.08 µM)
MIC [6]: 0.39 µg/mL (≈ 1.08 µM)
MIC [7]: < 0.20 µg/mL
MIC [8]: < 0.20 µg/mL
MIC [9]: 50 µg/mL (≈ 139 µM)
MIC [10]: 0.78 µg/mL (≈ 2.17 µM)
MIC [11]: 6.25 µg/mL (≈ 17.4 µM)
MIC [12]: 0.78 µg/mL (≈ 2.17 µM)
MIC [13]: 1.56 µg/mL (≈ 4.34 µM)
MIC [14]: 1.56 µg/mL (≈ 4.34 µM)
antibacterial activity [15]: the most active compound
MIC [16]: 6.25 µg/mL (≈ 17.4 µM)
MIC [17]: 0.39 µg/mL (≈ 1.08 µM)
MIC [18]: 3.13 µg/mL (≈ 8.71 µM)
MIC [19]: 0.78 µg/mL (≈ 2.17 µM)
MIC [20]: 0.39 µg/mL (≈ 1.08 µM)
MIC [21]: 50 µg/mL (≈ 139 µM)
MIC [22]: 1.56 µg/mL (≈ 4.34 µM)
MIC [23]: 12.5 µg/mL (≈ 34.8 µM)
MIC [24]: 0.78 µg/mL (≈ 2.17 µM)
MIC [25]: 25 µg/mL (≈ 69.5 µM)
MIC [26]: 0.39 µg/mL (≈ 1.08 µM)
MIC [27]: < 0.20 µg/mL
MIC [28]: 0.78 µg/mL (≈ 2.17 µM)
MIC [29]: 0.78 µg/mL (≈ 2.17 µM)
MIC [30]: 0.20 µg/mL (≈ 0.556 µM)
MIC [31]: 12.5 µg/mL (≈ 34.8 µM)
MIC [32]: 0.39 µg/mL (≈ 1.08 µM)
MIC [33]: 100 µg/mL (≈ 278 µM)
MIC [34]: 12.5 µg/mL (≈ 34.8 µM)
MIC [35]: 0.39 µg/mL (≈ 1.08 µM)
MIC [36]: 0.39 µg/mL (≈ 1.08 µM)
MIC [37]: < 0.20 µg/mL
MIC [38]: 0.78 µg/mL (≈ 2.17 µM)
MIC [39]: 0.39 µg/mL (≈ 1.08 µM)
MIC [40]: 50 µg/mL (≈ 139 µM)
MIC [41]: 0.78 µg/mL (≈ 2.17 µM)
acute toxicity ([42]; mice, intravenous, in words): low toxicity
tolerated dose (all treated mice) ([42]; mouse, in vivo, iv, 336 h): 100 mg/kg
MIC [43]: 0.78 µg/mL (≈ 2.17 µM)
MIC [44]: 0.39 µg/mL (≈ 1.08 µM)
MIC [45]: 1.56 µg/mL (≈ 4.34 µM)
MIC [46]: 1.56 µg/mL (≈ 4.34 µM)
MIC [47]: 25.0 µg/mL (≈ 69.5 µM)
MIC [48]: 0.39 µg/mL (≈ 1.08 µM)
MIC [49]: 3.13 µg/mL (≈ 8.71 µM)
MIC [50]: 0.78 µg/mL (≈ 2.17 µM)
MIC [51]: < 0.20 µg/mL
MIC [52]: 1.56 µg/mL (≈ 4.34 µM)
MIC [53]: 0.78 µg/mL (≈ 2.17 µM)

CN(C(=O)CN)C1C(O)CC(N)C(OC2OC(CN)CCC2N)C1O (stereo not shown) [di-N^6',O^3 -demethylistamycinA]
antibacterial activity against Pseudomonas aeruginosa [54]: significantly higher than the parent istamycin A
